From patent publication US20230027361A1, “METTL3 MODULATORS” (priority 2019, published 2023) come the findings set out here.

As a reminder, the IC50 is the concentration needed to halve the response being measured.

One test addresses METTL1/WDR4 (Homo sapiens, UniProt Q9UBP6). Briefly: METTL1 Assay (METTL1 biochemical assay). The settings on record: read-out: METTL1 IC50; METTL1 biochemical assay. The protocol: Assays were performed in a 25 μl-volume in 384-well V-bottom polypropylene microplates (Greiner Bio-One, cat. No. 781280) at ambient temperature. Optimized 1× assay buffer was 20 mM HEPES pH 7.5, 50 mM KCl, 250 μM MgCl2, 1 mM DTT, 0.01% Tween, 0.01% BSG, 0.004 U/μl RNAseOUT (cat. No. 10777019, ThermoFisher Scientific, Waltham, Mass.). For compound screening METTL1/WDR4 (final concentration, f.c.=6.25 nM) was added using a Multidrop Combi (ThermoFisher Scientific, Waltham, Mass.) and preincubated for 5 min. Reactions were started by adding 3′ biotinylated RNA ([…]-biotin) (f.c.=25 nM) and 3H-SAM (f.c.=60 nM) substrates. Reactions proceeded for 20 minutes and were quenched with excess non-radioactive SAM (f.c.=15 μM). The reactions were then transferred to streptavidin-coated flashplates and incubated for 2 hours at 25° C. Following two washing cycles with 0.1% Tween-20, the plates were sealed and read on a TopCount (PerkinElmer, Waltham, Mass.) plate-based scintillation counter. For determination of kinetic parameters, reaction times were optimized so that measurements were taken during the initial velocity phase of the reaction.

The target in another test is METTL3/METTL14 (Homo sapiens, UniProt Q86U44). Kind of test: METTL3-14 Standard Enzyme Assay (METTL3 biochemical assay). As to conditions: METTL3 biochemical assay; read-out: METTL3 IC50. As for the experimental part: Assays were performed in a 25 μl-volume in 384-well V-bottom polypropylene microplates (Greiner Bio-One, cat. No. 781280) at ambient temperature. Optimized 1× assay buffer was 20 mM HEPES pH 7.5, 50 mM KCl, 250 μM MgCl2, 1 mM DTT, 0.01% Tween, 0.01% BSG, 0.004 U/μl RNAseOUT (cat. No. 10777019, ThermoFisher Scientific, Waltham, Mass.). For compound screening METTL3/METTL14 (final concentration, f.c.=2.5 nM) was added using a Multidrop Combi (ThermoFisher Scientific, Waltham, Mass.) and preincubated for 5 min. Reactions were started by adding 3′ biotinylated RNA ([…]-biotin) (f.c.=100 nM) and 3H-SAM (f.c.=100 nM) substrates. Reactions proceeded for 30 minutes and were quenched with excess non-radioactive SAM (f.c.=15 μM). The reactions were then transferred to streptavidin-coated flashplates and incubated for 2 hours at 25° C. Following two washing cycles with 0.1% Tween-20, the plates were sealed and read on a TopCount (PerkinElmer, Waltham, Mass.) plate-based scintillation counter. For determination of kinetic parameters, reaction times were optimized so that measurements were taken during the initial velocity phase of the reaction.
Chain of METTL3/METTL14 (Q86U44 whole entry, species assumed): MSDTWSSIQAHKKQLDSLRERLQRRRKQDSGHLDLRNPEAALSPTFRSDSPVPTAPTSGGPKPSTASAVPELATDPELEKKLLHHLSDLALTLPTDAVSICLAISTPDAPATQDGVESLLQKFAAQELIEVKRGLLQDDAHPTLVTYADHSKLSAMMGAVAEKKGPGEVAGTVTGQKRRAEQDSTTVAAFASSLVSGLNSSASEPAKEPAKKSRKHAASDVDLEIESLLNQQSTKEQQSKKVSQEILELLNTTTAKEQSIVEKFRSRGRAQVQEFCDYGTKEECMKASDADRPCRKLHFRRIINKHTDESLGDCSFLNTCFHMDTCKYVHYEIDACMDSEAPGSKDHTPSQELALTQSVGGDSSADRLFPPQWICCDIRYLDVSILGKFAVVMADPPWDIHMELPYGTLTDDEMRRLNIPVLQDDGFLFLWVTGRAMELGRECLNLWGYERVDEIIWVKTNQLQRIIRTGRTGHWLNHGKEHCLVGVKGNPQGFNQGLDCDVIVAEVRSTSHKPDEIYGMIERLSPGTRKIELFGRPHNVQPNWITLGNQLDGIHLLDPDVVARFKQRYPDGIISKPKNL
Chain of METTL3/METTL14 (Q9HCE5 whole entry partner, species assumed): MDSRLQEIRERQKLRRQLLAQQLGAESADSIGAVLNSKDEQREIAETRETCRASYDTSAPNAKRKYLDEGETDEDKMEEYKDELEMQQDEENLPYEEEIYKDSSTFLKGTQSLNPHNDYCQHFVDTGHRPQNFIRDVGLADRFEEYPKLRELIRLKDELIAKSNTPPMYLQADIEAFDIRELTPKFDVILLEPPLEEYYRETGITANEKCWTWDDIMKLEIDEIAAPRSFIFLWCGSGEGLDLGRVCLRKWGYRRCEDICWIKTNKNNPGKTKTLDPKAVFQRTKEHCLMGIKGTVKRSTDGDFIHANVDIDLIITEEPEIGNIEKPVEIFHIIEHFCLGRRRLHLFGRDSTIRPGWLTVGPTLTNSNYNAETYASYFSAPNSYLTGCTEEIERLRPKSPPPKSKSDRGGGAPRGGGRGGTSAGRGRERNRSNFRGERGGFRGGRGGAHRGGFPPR

The target of the next test is PRMT5-MEP50 (Homo sapiens, UniProt O14744). Briefly: PRMT5 Assay (PRMT5 biochemical assay). As to conditions: PRMT5 biochemical assay; read-out: PRMT5 IC50. As for the experimental part: Assays were performed in a 25 μl-volume in 384-well V-bottom polypropylene microplates (Greiner Bio-One, cat. No. 781280) at ambient temperature. Optimized 1× assay buffer was 20 mM Tris-HCl pH 8.0, 1 mM DTT, […]. For compound screening PRMT5-MEP50 (final concentration, f.c.=2.5 nM) was added using a Multidrop Combi (ThermoFisher Scientific, Waltham, Mass.) and preincubated for 5 min. Reactions were started by adding 3′ biotinylated histone H4 peptide acetylated on serine 1 (Ac-[…]-Biotin) (f.c.=100 nM) and 3H-SAM (f.c.=250 nM) substrates. Reactions proceeded for 60 minutes and were quenched with excess non-radioactive SAM (f.c.=15 μM). The reactions were then transferred to streptavidin-coated flashplates and incubated for 2 hours at 25° C. Following two washing cycles with 0.1% Tween-20, the plates were sealed and read on a TopCount (PerkinElmer, Waltham, Mass.) plate-based scintillation counter. For determination of kinetic parameters, reaction times were optimized so that measurements were taken during the initial velocity phase of the reaction.
Chain of PRMT5-MEP50 (O14744 whole entry): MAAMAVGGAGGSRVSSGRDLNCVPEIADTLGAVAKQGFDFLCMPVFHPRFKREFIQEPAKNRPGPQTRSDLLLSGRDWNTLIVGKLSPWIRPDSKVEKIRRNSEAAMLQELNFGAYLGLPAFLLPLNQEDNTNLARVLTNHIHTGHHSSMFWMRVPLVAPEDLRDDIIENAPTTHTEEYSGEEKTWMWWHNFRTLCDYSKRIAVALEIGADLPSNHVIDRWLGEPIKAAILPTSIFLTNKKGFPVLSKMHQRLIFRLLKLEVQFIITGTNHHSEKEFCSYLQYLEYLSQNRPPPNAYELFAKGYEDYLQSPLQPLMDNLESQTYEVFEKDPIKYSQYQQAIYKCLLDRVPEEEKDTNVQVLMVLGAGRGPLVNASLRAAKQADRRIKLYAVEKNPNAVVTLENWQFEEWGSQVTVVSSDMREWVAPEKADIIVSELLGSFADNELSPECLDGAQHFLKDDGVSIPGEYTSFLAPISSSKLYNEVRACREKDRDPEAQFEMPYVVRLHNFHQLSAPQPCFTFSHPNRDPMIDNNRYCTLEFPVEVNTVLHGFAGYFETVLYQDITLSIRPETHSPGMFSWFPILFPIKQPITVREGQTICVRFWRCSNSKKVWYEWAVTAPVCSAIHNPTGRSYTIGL
Chain of PRMT5-MEP50 (Q9BQA1 whole entry partner): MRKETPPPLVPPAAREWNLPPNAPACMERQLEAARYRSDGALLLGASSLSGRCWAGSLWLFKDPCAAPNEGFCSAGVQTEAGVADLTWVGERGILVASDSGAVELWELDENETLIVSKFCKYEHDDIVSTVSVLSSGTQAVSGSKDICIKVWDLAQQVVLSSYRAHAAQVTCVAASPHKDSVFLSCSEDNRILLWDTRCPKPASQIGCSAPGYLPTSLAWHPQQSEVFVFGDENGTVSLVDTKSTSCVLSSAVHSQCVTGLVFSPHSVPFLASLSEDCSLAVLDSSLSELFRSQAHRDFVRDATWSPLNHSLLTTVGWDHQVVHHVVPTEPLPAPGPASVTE

Molecules are shown by their SMILES.

Chain of METTL1/WDR4 (Q9UBP6 whole entry, species assumed): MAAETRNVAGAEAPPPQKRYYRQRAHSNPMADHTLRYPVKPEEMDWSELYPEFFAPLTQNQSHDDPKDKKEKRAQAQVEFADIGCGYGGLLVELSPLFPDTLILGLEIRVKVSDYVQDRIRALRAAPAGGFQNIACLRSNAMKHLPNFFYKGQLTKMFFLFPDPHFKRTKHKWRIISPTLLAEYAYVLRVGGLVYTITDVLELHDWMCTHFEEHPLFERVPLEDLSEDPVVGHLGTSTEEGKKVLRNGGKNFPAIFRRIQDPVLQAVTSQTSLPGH
Chain of METTL1/WDR4 (P57081 whole entry partner, species assumed): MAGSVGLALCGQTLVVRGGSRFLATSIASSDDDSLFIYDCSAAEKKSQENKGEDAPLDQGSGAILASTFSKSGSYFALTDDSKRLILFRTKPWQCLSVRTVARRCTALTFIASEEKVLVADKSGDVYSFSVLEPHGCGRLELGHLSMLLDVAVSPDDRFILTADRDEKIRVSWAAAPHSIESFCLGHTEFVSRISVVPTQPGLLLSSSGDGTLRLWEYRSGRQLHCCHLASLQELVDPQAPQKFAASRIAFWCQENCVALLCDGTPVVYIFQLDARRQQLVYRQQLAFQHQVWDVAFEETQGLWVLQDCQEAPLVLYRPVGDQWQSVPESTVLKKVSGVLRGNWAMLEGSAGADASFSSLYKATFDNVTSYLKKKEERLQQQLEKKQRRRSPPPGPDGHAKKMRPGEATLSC

Turning to `Nc1ncnc2c1ccn2[C@@H]1C[C@H](CCc2cnc3cccnc3c2)[C@@H](O)[C@H]1O` [I-126], the 50% inhibitory concentration (IC50) on METTL1/WDR4 was > 1000 nM; at METTL3/METTL14 it was > 1000 nM; on PRMT5-MEP50, < 10 nM.
Regarding `Nc1ccc2cc(CC[C@H]3C[C@@H](n4ccc5c(NCCc6ccccc6)ncnc54)[C@H](O)[C@@H]3O)ccc2n1` [I-97], the figures for the IC50 at METTL1/WDR4, at METTL3/METTL14 and on PRMT5-MEP50 were > 1000 nM, > 1000 nM and 100 to 1000 nM, respectively.
For the compound `CNc1ccc2ccc(OC[C@H]3O[C@@H](n4cc(Br)c5c(N)ncnc54)C[C@@H]3O)cc2n1` [I-47], the results for the 50% inhibitory concentration (IC50) at METTL1/WDR4, on METTL3/METTL14 and on PRMT5-MEP50 were > 1000 nM, < 10 nM and 100 to 1000 nM, respectively.
The corresponding values for `Nc1ncnc2c1ccn2[C@@H]1C[C@H](CCc2ccc3ccc(NCc4ccccc4)nc3c2)[C@@H](O)[C@H]1O` [I-121] are > 1000 nM, 100 to 1000 nM and < 10 nM.
Consider `NC(=O)Nc1cccc(CC[C@H]2C[C@@H](n3ccc4c(N)ncnc43)[C@H](O)[C@@H]2O)c1` [I-95], for which the concentration for half-maximal inhibition (IC50) on METTL1/WDR4 is > 1000 nM; at METTL3/METTL14, > 1000 nM; at PRMT5-MEP50, 100 to 1000 nM.
Consider `Nc1ncnc2c1ccn2[C@@H]1C[C@H](CCc2ccc3[nH]c(=O)[nH]c3c2)[C@@H](O)[C@H]1O` [I-93], for which the IC50 on METTL1/WDR4 is > 1000 nM; at METTL3/METTL14 it was > 1000 nM; on PRMT5-MEP50 it was 10 to 100 nM.
For the compound `Nc1ncnc2c1ccn2[C@@H]1C[C@H](CCc2ccc3cc[nH]c3c2)[C@@H](O)[C@H]1O` [I-101], the IC50 was > 1000 nM on METTL1/WDR4, > 1000 nM at METTL3/METTL14 and 100 to 1000 nM at PRMT5-MEP50.
For `Nc1ncnc2c1ccn2[C@@H]1C[C@H](CCc2ccc3[nH]ccc3c2)[C@@H](O)[C@H]1O` [I-92], the IC50 on METTL1/WDR4 is > 1000 nM; at METTL3/METTL14, > 1000 nM; on PRMT5-MEP50 it was 100 to 1000 nM.
As for `Nc1ccc2ccc(OC[C@H]3O[C@@H](n4ccc5c(N)ncnc54)[C@H](O)[C@@H]3O)cc2n1` [I-80], the IC50 on METTL1/WDR4 is > 1000 nM; on METTL3/METTL14, 10 to 100 nM; on PRMT5-MEP50, < 10 nM.
Taken in the same sequence, the figures for `Nc1ccc2ccc(OC[C@H]3O[C@H](n4ccc5c(N)ncnc54)[C@H](O)[C@@H]3O)cc2n1` [I-79] were > 1000 nM, > 1000 nM and 100 to 1000 nM.
As to `Nc1ccc2ccc(CC[C@H]3C[C@@H](n4ccc5c(N)ncnc54)[C@H](O)[C@@H]3O)cc2c1` [I-108], the IC50 on METTL1/WDR4 is > 1000 nM; at METTL3/METTL14, > 1000 nM; on PRMT5-MEP50 it was 100 to 1000 nM.
As to `Nc1ncnc2c1ccn2[C@@H]1C[C@H](CCc2ccc3ccc(Nc4ccccc4)nc3c2)[C@@H](O)[C@H]1O` [I-122], the results for the IC50 on METTL1/WDR4, at METTL3/METTL14 and at PRMT5-MEP50 were > 1000 nM, > 1000 nM and < 10 nM, respectively.
Regarding `CNc1ccc2cc(F)c(CC[C@H]3C[C@@H](n4ccc5c(N)ncnc54)[C@H](O)[C@@H]3O)cc2n1` [I-87], the IC50 at METTL1/WDR4 is > 1000 nM; at METTL3/METTL14, 10 to 100 nM; at PRMT5-MEP50 it was < 10 nM.
As to `Nc1cccc2ccc(CC[C@H]3C[C@@H](n4ccc5c(N)ncnc54)[C@H](O)[C@@H]3O)cc12` [I-110], the IC50 on METTL1/WDR4 was > 1000 nM; on METTL3/METTL14, > 1000 nM; on PRMT5-MEP50 it was 100 to 1000 nM.
Take `Cc1nc(N)c2ccn([C@@H]3C[C@H](CCc4ccc5ccc(N)nc5c4)[C@@H](O)[C@H]3O)c2n1` [I-119]: the half-maximal inhibitory concentration (IC50) on METTL1/WDR4 is > 1000 nM; on METTL3/METTL14, > 1000 nM; at PRMT5-MEP50, < 10 nM.
Turning to `Nc1ncnc2c1ccn2[C@@H]1C[C@H](CCc2ccc3cc(C#Cc4ccccc4)cnc3c2)[C@@H](O)[C@H]1O` [I-112], the results for the half-inhibitory concentration (IC50) on METTL1/WDR4, on METTL3/METTL14 and at PRMT5-MEP50 were > 1000 nM, > 1000 nM and 10 to 100 nM, respectively.
